Laboratory results reported in PMC7344659, “Bioactivity of Spongian Diterpenoid Scaffolds from the Antarctic Sponge Dendrilla antarctica” (Marine Drugs, 2020).
pIC50: −log10 of the molar value. Where two headings read alike, the source gives them in different places.

Tests used:
[1] = tested on: primary human hepatocytes; assay: Cytotoxicity towards uninfected primary human hepatocytes; format: cell-based; details: for inhibition at 5 µg/mL: Hepatocyte, 5 μg/mL, uninfected primary human hepatocytes, % (Standard Deviation), n = 3, read-out: Plasmodium falciparum Inhibition at 5 μg/mL Uninfected PHHs
Description: (§1) The full suite of Dendrilla antarctica-derived compounds, with the exception of darwinolide (1) and dendrillin D (12) owing to mass limitations, were tested against Leishmania donovani infected macrophages, liver-stage sporozoites in primary human hepatocytes, and against MRSA biofilm. Cytotoxicity was evaluated using the mammalian J774A.1 cell line in L. donovani-active compounds, while primary human hepatocytes were evaluated for malaria-active compounds.
(§2) For the Plasmodium falciparum infected liver cells, screening was conducted at a fixed concentration of 5 µg/mL for each compound, and activities representing 60% inhibition and 100% inhibition are reported in comparison with the positive control primaquine. […] Aplysulphurin (2) at ≤13 μM was also active at the highest level.
(§3) The liver-stage Plasmodium falciparum assay was conducted as previously reported.

[2] = J774A.1-cell cytotoxicity assay (uninfected macrophage); format: cell-based; details: mouse, J774A.1 macrophage cells (uninfected); Table 3; unit not given (μM in Table 2); read-out: J774 Cytotoxiciy
Description: as §1
(§4) The Leishmania donovani cell line infected macrophage assay and cytotoxicity screen were conducted as previously described.

J774A.1 macrophages [3] = assay: as above; format: cell-based; details: Mus musculus, J774.A1; cytotoxicity, uninfected J774A.1 macrophages; single point determination; read-out: Leishmania donovani IC50 Uninfected Macrophage
Description: as §1, §4

Plasmodium falciparum [4] = assay: Liver-stage Plasmodium falciparum assay in primary human hepatocytes; format: cell-based; details: for inhibition at 5 µg/mL: Plasmodium falciparum, Hepatocyte, 5 μg/mL, infected primary human hepatocytes, % (Standard Deviation), n = 3, read-out: Plasmodium falciparum Inhibition at 5 μg/mL Infected PHHs
Description: as §1, §2, §3

MRSA biofilm = MRSA biofilm eradication assay; format: cell-based, methicillin-resistant Staphylococcus aureus; details: for inhibition at 25 µg/mL / inhibition at 50 µg/mL / inhibition at 100 µg/mL: Staphylococcus aureus, MRSA; for inhibition at 50 µg/mL: 50 μg/mL; for inhibition at 100 µg/mL: 100 μg/mL
Description: The MRSA biofilm assay was carried out at concentrations of 100, 50, and 25 µg/mL for each compound, and activities representing 50% and 90% eradication are reported.
The MRSA biofilm assay was conducted as previously reported.

Leishmania donovani [5] = assay: Leishmania donovani infected macrophage assay; format: cell-based; details: for pIC50: single point determination, read-out: Leishmania donovani IC50 Infected Macrophage; for IC50: Macrophage, unit not given (μM in Table 2), read-out: Pathogen Activity, Leishmania donovani
Description: as §1
(§5) The results from the Leishmania donovani assay (Table 2) indicate activity commensurate with the positive control and current standard of care, miltefosine (2.9 µM) is observed in aplysulphurin (2, 3.1 μM), tetrahydroaplysulphurin-1 (4, 3.5 μM), dendrillin B (10, 3.5 μM), 8-ketodihydrogracilin (13, 4.5 μM), and triol 15 (4.5 μM).
as §4

Plasmodium falciparum [6] = assay: Liver-stage Plasmodium falciparum assay in primary human hepatocytes; format: cell-based; details: Table 3; SI = J774 IC50/pathogen IC50
[7] = Leishmania donovani infected macrophage assay; format: cell-based; details: mouse, J774A.1 cytotoxicity / L. donovani activity; read-out: selectivity index (SI, mammalian cytotoxicity/antiprotozoal activity)
Description: as §1, §5, §4

Leishmania donovani [8] = tested on: Leishmania donovani; design: method as in PMID 32281798; details: ref [15], cited from earlier work; for pIC50: J774A.1 macrophages, single point determination, read-out: Leishmania donovani IC50 Infected Macrophage
J774A.1 macrophages [9] = tested on: J774A.1 macrophages; design: method as in PMID 32281798; details: ref [15], cited from earlier work
[10] = Leishmania donovani, J774.A1, J774A.1 macrophages
[11] = Table 3, no unit printed there, same values marked as from reference in Table 2, read-out: J774 Cytotoxiciy
[12] = cytotoxicity, uninfected J774A.1 macrophages, single point determination, read-out: Leishmania donovani IC50 Uninfected Macrophage

| Structure (SMILES) | inhibition at 5 µg/mL [1] | IC50 [2] | pIC50 (J774A.1 macrophages [3]) | inhibition at 5 µg/mL (Plasmodium falciparum [4]) | inhibition at 25 µg/mL (MRSA biofilm; 25 μg/mL, % (Std. Dev.), n = 6) | inhibition at 50 µg/mL (MRSA biofilm; % (Std. Dev.), n = 6) | inhibition at 100 µg/mL (MRSA biofilm; % (Std. Dev.), n = 6) | pIC50 (Leishmania donovani [5]; [10]) | other results |
| --- | --- | --- | --- | --- | --- | --- | --- | --- | --- |
| CC(=O)OC1OC(OC(C)=O)C2C(=O)C(C3(C)CCCC(C)(C)C3)CCC12 (stereo not drawn) [8-Ketodihydrogracilin (13), 8-ketodihydrogracilin] | 2.3% | 22 µM | 4.66 | 0% | 5.7% | 97.7% | 99.7% | 5.35 | concentration at which activity against MRSA biofilm was exhibited (MRSA biofilm; tested at 100, 50 and 25 µg/mL, eradication level not given): 50 µg/mL; IC50 (Leishmania donovani [5]; Leishmania donovani, Table 3): 4.5 µM; Selectivity Index (SI), Leishmania donovani (Leishmania donovani [5]; Table 3, SI = J774 IC50/pathogen IC50): 5 |
| COC(=O)C(C)c1c(C2(C)CCCC(C)(C)C2)ccc2c1C(O)OC2=O (stereo not drawn) [Dendrillin B (10), dendrillin B] | 0% | > 140 µM | < 3.85 | 0% | 37% | 19.4% | 90.7% | – | pIC50 (Leishmania donovani [5]; J774A.1 macrophages): > 5.00; IC50 (Leishmania donovani [5]; Leishmania donovani, Table 3): 3.5 µM |
| CCCCCCCCCCCCCCCCOP(=O)([O-])OCC[N+](C)(C)C [Miltefosine, miltefosine, reference compound] | – | – | < 3.92 | – | – | – | – | 5.54 | – |
| CC(=O)O[C@@H]1O[C@H](OC(C)=O)[C@@H]2[C@H]1CC[C@H](/C(C)=C1/CCCC1(C)C)C2(C)C [Compound 7] | 0.7% | – | 4.74 | 39.3% | 3.9% | 28.7% | 2.9% | 4.85 | – |
| C[C@@H](CO)c1c([C@@]2(C)CCCC(C)(C)C2)ccc(CO)c1CO [Triol (15)] | 2.2% | > 160 µM | < 3.80 | 81% | 2.6% | 12.3% | 9.3% | 5.35 | cytotoxicity towards uninfected primary human hepatocytes (in words) ([1]; 5 µg/mL screen): no discernable cytotoxicity; Selectivity Index (SI), Plasmodium falciparum (Plasmodium falciparum [6]): >10; Pathogen Activity, Plasmodium falciparum (Plasmodium falciparum [4]; Table 3, no unit printed there (≤16 μM)): ≤16; inhibition of the parasite cultures (Plasmodium falciparum) (Plasmodium falciparum [4]; at low micromolar concentrations): 100%; concentration with 100% inhibition against P. falciparum infected liver cells (Plasmodium falciparum [4]; screen at fixed 5 µg/mL, 100% inhibition level (highest level)): ≤ 16 µM; selectivity ratio [7]: > 38; selectivity index (SI, mammalian cytotoxicity/antiprotozoal activity) (Leishmania donovani [5]; J774A.1 cytotoxicity / L. donovani activity): ~40; pIC50 (Leishmania donovani [5]; J774A.1 macrophages): 5.38 |
| COC(=O)[C@H](C)c1c([C@@]2(C)CCCC(C)(C)C2)ccc2c1C(=O)OC2 [Membranolide (5), membranolide] | 0% | – | – | 59.7% | ~100% | 99.9% | 100% | – | MRSA Biofilm Inhibition 25 μg/mL (MRSA biofilm; 25 μg/mL, % (Std. Dev.), n = 6): 99.7 (0.1) %; Pathogen Activity, MRSA Biofilm (MRSA biofilm; Table 3, no unit printed there (58 μM)): 58; concentration achieving 90% eradication of MRSA biofilm (MRSA biofilm; lowest concentration tested, 25 μg/mL, in molar units): 58 µM; concentration achieving 90% eradication of MRSA biofilm (MRSA biofilm; tested at 100, 50 and 25 µg/mL, 90% eradication): 25 µg/mL; pIC50 (Leishmania donovani [8]; listed as 5): > 5.00; pIC50 (Leishmania donovani [8]): 5.01; selectivity ratio [7]: 8; pIC50 (J774A.1 macrophages [9]; [11]): 4.11; pIC50 (J774A.1 macrophages [9]; cytotoxicity, uninfected J774A.1 macrophages, single point determination, listed as membranolide (5), read-out: Leishmania donovani IC50 Uninfected Macrophage): 4.11; pIC50 (J774A.1 macrophages [9]; [12]): 4.11 |
| COc1cc(NC(C)CCCN)c2ncccc2c1 (stereo not drawn) [Primaquine, primaquine, reference compound] | 0% | – | – | 97.8% | – | – | – | – | – |
| CC(=O)OC1OC2OC(=O)C(C)C3=C(C4(C)CCCC(C)(C)C4)CCC1C32 (stereo not drawn) [Tetrahydroaplysulphurin-1 (4), tetrahydroaplysulphurin-1] | 3% | – | – | 66.7% | 35% | 31.1% | 20.8% | – | concentration with modest activity (60% inhibition) against P. falciparum infected liver cells (Plasmodium falciparum [4]; screen at fixed 5 µg/mL, 60% inhibition level): ≤ 13 µM; pIC50 (Leishmania donovani [8]): 5.46; IC50 (Leishmania donovani [8]; Table 3, unit not given (μM in Table 2), read-out: Pathogen Activity, Leishmania donovani): 3.5 µM; pIC50 (J774A.1 macrophages [9]; [11]): < 3.89; pIC50 (J774A.1 macrophages [9]; [12]): < 3.89 |
